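Step 1: Grow cells in 96-well plates. Step 2: Expose to compound for 48 hours at 5 concentrations. Step 3: Interpolate endpoints linearly; if unreached, use highest concentration. TGI: concentration producing complete growth inhibition.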
Columns and labels:
Assay in all cases: NCI tumour cell line growth inhibition, 48 h
[1] = tested on: NCI/ADR-RES ovarian
[2] = tested on: A549 NSCLC
[3] = tested on: SK-MEL-28 melanoma
[4] = tested on: MOLT-4 leukemia
[5] = tested on: SNB-75 CNS
[6] = tested on: UACC-62 melanoma
[7] = tested on: SK-MEL-2 melanoma
[8] = tested on: 786-0 renal
[9] = tested on: IGROV1 ovarian
[10] = tested on: UO-31 renal
[11] = tested on: KM12 colon
[12] = tested on: NCI-H23 lung
[13] = tested on: MDA-N
[14] = tested on: NCI-H460 lung
[15] = tested on: CAKI-1 renal
[16] = tested on: HCT-116 colon
[17] = tested on: RXF 393 renal
[18] = tested on: SF-268 CNS
[19] = tested on: OVCAR-3 ovarian
[20] = tested on: HS 578T breast
[21] = tested on: OVCAR-5 ovarian
[22] = tested on: LOX IMVI melanoma
[23] = tested on: COLO 205 colon
[24] = tested on: DU-145 prostate
[25] = tested on: OVCAR-8 ovarian
[26] = tested on: HT29 colon
[27] = tested on: SW-620 colon
[28] = tested on: U251 CNS
[29] = tested on: ACHN renal
[30] = tested on: CCRF-CEM leukemia
[31] = tested on: MALME-3M melanoma
[32] = tested on: PC-3 prostate
[33] = tested on: NCI-H522 lung
[34] = tested on: SK-MEL-5 melanoma
[35] = tested on: SF-295 CNS
[36] = tested on: A498 renal
[37] = tested on: MCF7 breast
[38] = tested on: MDA-MB-435
[39] = tested on: SR leukemia
[40] = tested on: RPMI-8226 leukemia
[41] = tested on: HL-60(TB) leukemia
[42] = tested on: MDA-MB-231 breast
[43] = tested on: SN12C renal
[44] = tested on: SF-539 CNS
[45] = tested on: SK-OV-3 ovarian
[46] = tested on: M14 melanoma
[47] = tested on: BT-549 breast
[48] = tested on: T-47D breast
[49] = tested on: HOP-92 NSCLC
[50] = tested on: NCI-H226 lung
[51] = tested on: HCT-15 colon
[52] = tested on: SNB-19 CNS
[53] = tested on: UACC-257 melanoma
[54] = tested on: HCC-2998 colon
[55] = tested on: EKVX NSCLC
[56] = tested on: K-562 leukemia
[57] = tested on: TK-10 renal
[58] = tested on: HOP-62 NSCLC
[59] = tested on: OVCAR-4 ovarian

Question: What does the source list for `CCOC(=O)C1(C(C)=O)OC(=O)c2cnccc21` (stereo not given)?
Answer: TGI [1]: > 100 µM; TGI [2]: > 100 µM; TGI [3]: > 100 µM; TGI [4]: > 100 µM; TGI [5]: > 100 µM; TGI [6]: > 100 µM; TGI [7]: > 100 µM; TGI [8]: > 100 µM; TGI [9]: > 100 µM; TGI [10]: > 100 µM; TGI [11]: > 100 µM; TGI [12]: > 100 µM; TGI [13]: > 100 µM; TGI [14]: > 100 µM; TGI [15]: > 100 µM; TGI [16]: > 100 µM; TGI [17]: > 100 µM; TGI [18]: > 100 µM; TGI [19]: > 100 µM; TGI [20]: > 100 µM; TGI [21]: > 100 µM; TGI [22]: > 100 µM; TGI [23]: > 100 µM; TGI [24]: > 100 µM; TGI [25]: > 100 µM; TGI [26]: > 100 µM; TGI [27]: > 100 µM; TGI [28]: > 100 µM; TGI [29]: > 100 µM; TGI [30]: > 100 µM; TGI [31]: > 100 µM; TGI [32]: > 100 µM; TGI [33]: > 100 µM; TGI [34]: > 100 µM; TGI [35]: > 100 µM; TGI [36]: > 100 µM; TGI [37]: > 100 µM; TGI [38]: > 100 µM; TGI [39]: > 100 µM; TGI [40]: > 100 µM; TGI [41]: > 100 µM; TGI [42]: > 100 µM; TGI [43]: > 100 µM; TGI [44]: > 100 µM; TGI [45]: > 100 µM; TGI [46]: > 100 µM; TGI [47]: > 100 µM; TGI [48]: > 100 µM; TGI [49]: > 100 µM; TGI [50]: > 100 µM; TGI [51]: > 100 µM; TGI [52]: > 100 µM; TGI [53]: > 100 µM; TGI [54]: > 100 µM; TGI [55]: > 100 µM; TGI [56]: > 100 µM

Question: How did the TGI [1] turn out when `O=[N+]([O-])c1ccc(/C(=C\c2ccccc2)Cn2ccnc2)cc1` was run?
Answer: 66 µM

Question: And the TGI [57]?
Answer: > 100 µM

Question: What about the TGI [2] of the same molecule?
Answer: > 100 µM

Question: What about the TGI [3] of the same molecule?
Answer: > 100 µM

Question: And the TGI [4]?
Answer: > 100 µM

Question: And the TGI [5]?
Answer: 86.4 µM

Question: And the TGI [6]?
Answer: > 100 µM

Question: What about the TGI [7] of the same molecule?
Answer: 61.1 µM

Question: What about the TGI [8] of the same molecule?
Answer: > 100 µM

Question: And the TGI [9]?
Answer: > 100 µM

Question: What about the TGI [10] of the same molecule?
Answer: > 100 µM

Question: And the TGI [58]?
Answer: > 100 µM

Question: And the TGI [11]?
Answer: > 100 µM

Question: And the TGI [12]?
Answer: > 100 µM

Question: What about the TGI [13] of the same molecule?
Answer: 75.1 µM

Question: And the TGI [14]?
Answer: > 100 µM

Question: And the TGI [15]?
Answer: 45.6 µM

Question: And the TGI [16]?
Answer: > 100 µM

Question: And the TGI [17]?
Answer: > 100 µM

Question: And the TGI [20]?
Answer: 69.9 µM

Question: What about the TGI [21] of the same molecule?
Answer: > 100 µM

Question: What about the TGI [22] of the same molecule?
Answer: 54.1 µM

Question: What about the TGI [23] of the same molecule?
Answer: 30 µM

Question: What about the TGI [24] of the same molecule?
Answer: > 100 µM

Question: What about the TGI [25] of the same molecule?
Answer: > 100 µM

Question: What about the TGI [26] of the same molecule?
Answer: 67.1 µM

Question: What about the TGI [27] of the same molecule?
Answer: > 100 µM

Question: And the TGI [28]?
Answer: > 100 µM

Question: And the TGI [29]?
Answer: > 100 µM

Question: What about the TGI [30] of the same molecule?
Answer: > 100 µM

Question: What about the TGI [31] of the same molecule?
Answer: > 100 µM

Question: And the TGI [32]?
Answer: 95.7 µM

Question: And the TGI [33]?
Answer: 57.8 µM

Question: And the TGI [34]?
Answer: 94.4 µM

Question: And the TGI [35]?
Answer: > 100 µM

Question: What about the TGI [36] of the same molecule?
Answer: 72 µM

Question: What about the TGI [37] of the same molecule?
Answer: > 100 µM

Question: And the TGI [38]?
Answer: > 100 µM

Question: And the TGI [39]?
Answer: > 100 µM

Question: And the TGI [40]?
Answer: > 100 µM

Question: What about the TGI [41] of the same molecule?
Answer: 46.4 µM

Question: And the TGI [42]?
Answer: 87.8 µM

Question: And the TGI [43]?
Answer: > 100 µM

Question: What about the TGI [44] of the same molecule?
Answer: > 100 µM

Question: What about the TGI [45] of the same molecule?
Answer: > 100 µM

Question: And the TGI [46]?
Answer: > 100 µM

Question: What about the TGI [47] of the same molecule?
Answer: 87.8 µM

Question: What about the TGI [48] of the same molecule?
Answer: > 100 µM

Question: What about the TGI [59] of the same molecule?
Answer: > 100 µM

Question: What about the TGI [49] of the same molecule?
Answer: 79.9 µM

Question: What about the TGI [50] of the same molecule?
Answer: > 100 µM

Question: And the TGI [51]?
Answer: > 100 µM

Question: What about the TGI [52] of the same molecule?
Answer: > 100 µM

Question: And the TGI [53]?
Answer: > 100 µM

Question: What about the TGI [54] of the same molecule?
Answer: > 100 µM

Question: What about the TGI [55] of the same molecule?
Answer: > 100 µM

Question: What about the TGI [56] of the same molecule?
Answer: 69.2 µM

Question: What does the source list for `CCOC(=O)C(C(N)=O)c1nc2cc([N+](=O)[O-])ccc2nc1/C=C(\O)c1ccccc1` (stereo not given)?
Answer: TGI [1]: 34.8 µM; TGI [57]: 22.9 µM; TGI [2]: 32.8 µM; TGI [3]: 86.9 µM; TGI [5]: 43.1 µM; TGI [6]: 34.9 µM; TGI [7]: 30.4 µM; TGI [8]: 25.5 µM; TGI [9]: 24.8 µM; TGI [10]: 36.6 µM; TGI [58]: 22.9 µM; TGI [11]: 26.5 µM; TGI [12]: 23.7 µM; TGI [13]: 40.4 µM; TGI [14]: 26.1 µM; TGI [15]: 52 µM; TGI [16]: 32.7 µM; TGI [17]: 39.3 µM; TGI [18]: 32.1 µM; TGI [19]: 22 µM; TGI [20]: 51.2 µM; TGI [21]: 83.3 µM; TGI [22]: 28.7 µM; TGI [23]: 36.5 µM; TGI [24]: 31 µM; TGI [25]: 30 µM; TGI [26]: 45.3 µM; TGI [27]: 33.9 µM; TGI [28]: 23.4 µM; TGI [29]: 30.7 µM; TGI [31]: 36.7 µM; TGI [32]: 30.2 µM; TGI [33]: 29.3 µM; TGI [34]: 30.4 µM; TGI [35]: 42.5 µM; TGI [36]: 33.2 µM; TGI [37]: 24.8 µM; TGI [38]: 31.3 µM; TGI [39]: 16.5 µM; TGI [40]: 27.1 µM; TGI [41]: 26 µM; TGI [42]: 27 µM; TGI [43]: 64.4 µM; TGI [44]: 30.2 µM; TGI [45]: 29 µM; TGI [46]: 34.3 µM; TGI [47]: 49.9 µM; TGI [48]: 71.8 µM; TGI [59]: 34.7 µM; TGI [49]: 39.1 µM; TGI [50]: > 100 µM; TGI [51]: 28.4 µM; TGI [52]: 44.5 µM; TGI [53]: 40.4 µM; TGI [54]: 21.7 µM; TGI [55]: 76.5 µM; TGI [56]: 13.9 µM
